From US20210040074A1 (The United States of America,as represented by the …, priority 2018, published 2021)

Tests used:
human D1R [1] = biological target: T1, human D1R (Homo sapiens, UniProt P21728); test: D1 cAMP accumulation assay (D1R-HEK293 cells, DiscoverX HitHunter); details: fold change of dopamine EC50, 50 μM compound
Experimental: (§2) cAMP Accumulation Assay. Assays were performed on D1R-HEK293 (Codex Biosolutions, Gaithersburg, Md.) cells stably expressing the human D1R. HEK293 cell lines were maintained in Dulbecco's modified Eagles medium, supplemented with 10% fetal bovine serum, 100 U/ml penicillin, 100 μg/ml streptomycin, 1 mM sodium pyruvate, and 250 μg/ml G418 and incubated at 37° C., 5% CO2, and 90% humidity. […] After 18-24 h incubation at 37° C., 5% CO2, and 90% humidity, the media was removed and replaced with 5 μL/well PBS. […] Briefly, antibody and working solution was added to each well according to the manufacturer's protocol, and incubated in the dark at room temperature for 60 min. Following incubation, enzyme acceptor reagent was added to the plates and luminescence (RLU) was measured (FDSS μCell, Hamamatsu Photonics K. K., Bridgewater, N.J.) following a 3 h incubation in the dark at room temperature.

human D1R [2] = biological target: T1, human D1R; test: D1R β-arrestin recruitment assay (DiscoverX PathHunter, CHO-K1 cells); details: fold change of dopamine EC50, 50 μM compound
Source text: The DiscoverX PathHunter β-Arrestin Assay was used to measure β-arrestin reuitment to the D1R following the manufacturer's instructions.

D5 [3] = biological target: T2, D5 (Homo sapiens, UniProt P21918); test: D5R β-arrestin recruitment assay (DiscoverX PathHunter, CHO cells); type: cell-based; design: host or cells: CHO-K1; details: fold change of dopamine EC50, 50 μM compound
Experimental: (§1) β-arrestin Recruitment Assay. […] Following 18-24 h of incubation, the cells were treated with the indicated concentrations of compound in PBS buffer containing 0.2 mM sodium metabisulfite, and incubated at 37° C. for 90 min. DiscoverX reagent was added to cells according to the manufacturer's protocol, followed by a 60 min incubation in the dark at room temperature. Luminescence was measured on a Hamamatsu FDSS μ-Cell reader (Hamamatsu, Bridgewater, N.J.) and data were collected using the FDSS software.
Each PAM was also examined in the absence of DA as an agonist, as indicated.

D5 [4] = biological target: T2, D5; test: D5 cAMP assay; details: fold change of dopamine EC50, 50 μM compound
Experimental: as §2

D4R = biological target: T3, D4R (Homo sapiens, UniProt P21917); test: D4 β-arrestin recruitment assay (DiscoverX PathHunter, CHO-K1 cells); type: cell-based; design: inferred from the same PathHunter system described for D1R and D5R; host or cells: CHO-K1; details: fold change of dopamine EC50, 50 μM compound
T3 sequence (P21917 1-419): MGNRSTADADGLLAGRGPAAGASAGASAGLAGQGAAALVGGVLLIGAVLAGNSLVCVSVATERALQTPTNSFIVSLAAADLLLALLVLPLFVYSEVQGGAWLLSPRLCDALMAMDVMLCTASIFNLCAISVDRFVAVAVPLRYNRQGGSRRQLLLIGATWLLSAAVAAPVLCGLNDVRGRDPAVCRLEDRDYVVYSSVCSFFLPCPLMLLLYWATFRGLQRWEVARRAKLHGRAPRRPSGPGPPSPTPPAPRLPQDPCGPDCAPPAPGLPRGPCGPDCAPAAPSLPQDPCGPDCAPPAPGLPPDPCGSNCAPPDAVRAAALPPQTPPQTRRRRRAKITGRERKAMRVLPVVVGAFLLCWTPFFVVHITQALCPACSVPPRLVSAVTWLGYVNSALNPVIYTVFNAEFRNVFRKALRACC
Experimental: as §1, with “Assay. Agonist-mediated recruitment of β-arrestin-2 to all five DARs was determined using the DiscoveRx PathHunter complementation assay (DiscoverX Inc, Fremont, Calif.), as previously described (Free, et. al., 2014; Conroy, et. al., 2015).” for “Assay.”

D2R = D2R (Homo sapiens, UniProt P14416); test: D2R β-arrestin BRET assay; details: dopamine alone; mean ± SEM
Experimental: (§3) Bioluminescence Resonance Energy Transfer (BRET) Assays. Experiments were performed in HEK239 cells transiently transfected with D1R-RLuc8 and β-arrestin-mVenus (β-arrestin BRET) or Gαs-mVenus+β1+γ2 (Gs BRET) using the polyethylenimine (PEI) transfection method. […] Appropriate amounts of DNA were combined with 3 μg/μL PEI per μg of DNA in nonsupplemented DMEM and incubated with the cells overnight. Experiments were performed 48 hours post-transfection. On experiment day, cells were collected and resuspended in Dulbecco's Phosphate-Buffered Saline (DPBS) with Ca2+ and Mg2++0.2 mM sodium metabisulfite+5.5 mM glucose.

β2AR = β2AR (Homo sapiens, UniProt P07550); test: β2AR β-arrestin BRET assay; details: epinephrine alone; mean ± SEM
Chain of β2AR (P07550 whole entry): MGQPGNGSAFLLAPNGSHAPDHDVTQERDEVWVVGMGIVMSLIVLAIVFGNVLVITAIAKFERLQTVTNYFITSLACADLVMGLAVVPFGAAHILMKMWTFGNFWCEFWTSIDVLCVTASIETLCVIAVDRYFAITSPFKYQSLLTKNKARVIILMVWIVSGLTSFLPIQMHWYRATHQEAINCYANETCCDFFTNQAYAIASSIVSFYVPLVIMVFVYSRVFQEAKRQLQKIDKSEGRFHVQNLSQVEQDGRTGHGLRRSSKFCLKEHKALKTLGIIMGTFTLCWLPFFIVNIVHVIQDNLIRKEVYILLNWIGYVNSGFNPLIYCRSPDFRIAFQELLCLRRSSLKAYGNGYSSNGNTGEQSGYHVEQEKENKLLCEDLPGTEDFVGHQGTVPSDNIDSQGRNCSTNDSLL
Experimental: as §3

T1 sequence (P21728 whole entry): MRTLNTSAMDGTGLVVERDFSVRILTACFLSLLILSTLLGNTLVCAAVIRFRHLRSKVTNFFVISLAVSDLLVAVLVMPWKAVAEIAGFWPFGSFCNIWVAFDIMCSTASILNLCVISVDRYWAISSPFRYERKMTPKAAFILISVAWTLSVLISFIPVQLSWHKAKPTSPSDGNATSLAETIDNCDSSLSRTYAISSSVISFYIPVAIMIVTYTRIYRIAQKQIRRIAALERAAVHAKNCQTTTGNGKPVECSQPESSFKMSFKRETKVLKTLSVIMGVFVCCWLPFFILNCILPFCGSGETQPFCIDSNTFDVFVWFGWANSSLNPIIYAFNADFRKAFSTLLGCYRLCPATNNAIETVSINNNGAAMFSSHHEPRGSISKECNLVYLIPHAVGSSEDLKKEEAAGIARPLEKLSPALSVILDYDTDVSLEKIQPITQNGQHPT
T2 sequence (P21918 whole entry): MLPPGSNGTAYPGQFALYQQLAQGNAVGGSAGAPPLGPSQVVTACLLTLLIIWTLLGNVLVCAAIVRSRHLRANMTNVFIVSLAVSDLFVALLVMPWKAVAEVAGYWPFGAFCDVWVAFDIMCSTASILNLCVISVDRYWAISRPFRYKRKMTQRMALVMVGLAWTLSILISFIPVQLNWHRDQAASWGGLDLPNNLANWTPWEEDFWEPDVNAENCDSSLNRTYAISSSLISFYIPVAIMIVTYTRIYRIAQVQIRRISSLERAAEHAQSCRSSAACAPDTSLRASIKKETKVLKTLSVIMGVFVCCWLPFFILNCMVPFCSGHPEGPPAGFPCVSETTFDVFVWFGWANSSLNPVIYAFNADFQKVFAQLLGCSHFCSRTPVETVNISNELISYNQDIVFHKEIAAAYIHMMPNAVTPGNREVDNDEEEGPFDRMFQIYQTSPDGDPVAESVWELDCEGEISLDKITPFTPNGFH
Chain of D2R (P14416 whole entry): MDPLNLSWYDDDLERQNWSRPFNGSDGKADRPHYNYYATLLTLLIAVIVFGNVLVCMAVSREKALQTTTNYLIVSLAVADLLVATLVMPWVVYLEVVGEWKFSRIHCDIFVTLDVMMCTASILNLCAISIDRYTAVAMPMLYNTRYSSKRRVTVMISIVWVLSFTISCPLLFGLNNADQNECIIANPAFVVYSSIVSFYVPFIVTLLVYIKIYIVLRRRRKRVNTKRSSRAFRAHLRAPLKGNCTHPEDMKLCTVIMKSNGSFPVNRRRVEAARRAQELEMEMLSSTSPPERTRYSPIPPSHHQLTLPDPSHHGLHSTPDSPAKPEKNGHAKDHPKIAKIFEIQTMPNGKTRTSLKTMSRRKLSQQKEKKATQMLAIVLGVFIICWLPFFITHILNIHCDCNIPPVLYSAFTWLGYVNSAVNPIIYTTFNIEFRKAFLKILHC

| Structure (SMILES) | D1 cAMP: DA + 50 μM PAM, Fold Chg EC50 (human D1R [1]) | D1 Beta-Arrestin: DA + 50 μM PAM, Fold Chg EC50 (human D1R [2]) | D5 Beta-Arrestin: DA + 50 μM PAM, Fold Change EC50 (D5 [3]) | D5 cAMP: DA + 50 μM PAM, Fold Change EC50 (D5 [4]) | D4 Beta-Arrestin: DA + 50 μM PAM, Fold Change EC50 (D4R) | D2R Agonist Emax (% Ctrl) (D2R) | β2AR Agonist Emax (% Ctrl) (β2AR) |
| --- | --- | --- | --- | --- | --- | --- | --- |
| COc1ccc(-n2c(CC3CCCCC3)nc3c(c(=O)c4ccccc4n3C)c2=O)cc1 [Compound 16] | 0.34 | 0.45 | 0.73 | 0.67 | 1.45 |  |  |
| Cn1c2ccccc2c(=O)c2c(=O)n(-c3ccccc3)c(CC3CCCCC3)nc21 [Compound 20] |  |  | 2.38 | 1.30 | 2.14 |  |  |
| CC(C)Cc1nc2c(c(=O)c3ccccc3n2C)c(=O)n1-c1ccccc1 [Compound 21] |  |  | 4.56 | 2.22 | 0.62 |  |  |
| Cn1c2ccccc2c(=O)c2c(=O)n(-c3cccc(Cl)c3)c(CC3CCCCC3)nc21 [Compound 22] |  |  | 1.40 | 0.73 | 1.67 |  |  |
| Cn1c2ccccc2c(=O)c2c(=O)n(-c3ccccc3)c(C3CC3)nc21 [Compound 23] |  |  | 2.58 | 0.57 | 1.32 |  |  |
| Cn1c2ccccc2c(=O)c2c(=O)n(-c3ccccc3)c(C3CCCC3)nc21 [Compound 24] |  |  | 4.16 | 1.26 | 1.26 |  |  |
| CC(C)(C)C1CCc2c(sc(NC(=O)c3cncc(Br)c3)c2C(N)=O)C1 (stereo not shown) [Compound 29] | 1.30 | 1.05 | 1.68 | 0.66 | 1.20 |  |  |
| CC(C)(C)C1CCc2c(sc(NC(=O)c3ccccn3)c2C(N)=O)C1 (stereo not shown) [Compound 30] | 1.31 | 1.05 | 0.48 | 0.60 | 0.43 |  |  |
| CC1CCc2c(sc(NC(=O)c3ccc4ccccc4n3)c2C(N)=O)C1 (stereo not shown) [Compound 31] | 1.20 | 1.35 | 0.83 | 0.45 | 1.34 |  |  |
| CC(C)(C)C1CCc2c(sc(NC(=O)c3ccc4ccccc4n3)c2C(N)=O)C1 (stereo not shown) [Compound 32] | 1.28 | 0.77 | 0.92 | 1.25 | 0.73 |  |  |
| CC1CCc2c(sc(NC(=O)c3ccncc3)c2C(N)=O)C1 (stereo not shown) [Compound 33] | 1.53 | 0.97 | 1.86 | 1.57 | 0.81 |  |  |
| CN1CCc2c(sc(NC(=O)c3ccncc3)c2C#N)C1 [Compound 34] | 1.30 | 0.61 | 1.28 | 1.45 | 0.96 |  |  |
| CC1CCc2c(sc(NC(=O)c3cccnc3)c2C(N)=O)C1 (stereo not shown) [Compound 35] | 1.79 | 0.97 | 1.06 | 0.76 | 1.07 |  |  |
| NC(=O)c1c(NC(=O)c2ccccn2)sc2c1CCCC2 [Compound 36] | 2.50 | 0.83 | 0.26 | 0.86 | 1.19 |  |  |
| CC1CCc2c(sc(NC(=O)c3ccccn3)c2C(N)=O)C1 (stereo not shown) [Compound 37] | 1.61 | 1.05 | 0.47 | 1.64 | 1.06 |  |  |
| CC(C)(C)C1CCc2c(sc(NC(=O)c3cccnc3)c2C(N)=O)C1 (stereo not shown) [Compound 38] | 2.29 | 10.35 | 0.78 |  | 2.26 |  |  |
| CCOC(=O)c1c(NC(=O)c2cccnc2)sc2c1CCC(C(C)(C)C)C2 (stereo not shown) [Compound 39] | 1.04 | 3.01 | 0.65 |  | 2.03 |  |  |
| NC(=O)c1c(NC(=O)c2cccnc2)sc2c1CCC(c1ccccc1)C2 (stereo not shown) [Compound 40] | 0.7 | 1.97 | 0.48 |  | 0.68 |  |  |
| NCCc1ccc(O)c(O)c1 [Dopamine, dopamine, reference compound] |  |  |  |  |  | 100 ± 12.48 |  |
| CNC[C@H](O)c1ccc(O)c(O)c1 [Epinephrine, epinephrine, reference compound] |  |  |  |  |  |  | 99.9 ± 1.18 |
